# Source: PubChem BioAssay (NCI)
#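 Dose response: 5 concentrations. Exposure: 48 h. Format: 96-well plates. Endpoint: linear interpolation; highest concentration if not reached. The concentration for full growth arrest is given as TGI.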
# Tests used:
# Test in all cases: growth of human tumour cells (NCI), 48 h
# [1] = test system: MOLT-4 leukemia
# [2] = test system: HOP-92 NSCLC
# [3] = test system: SF-268 CNS
# [4] = test system: OVCAR-5 ovarian
# [5] = test system: NCI-H226 lung
# [6] = test system: KM12 colon
# [7] = test system: TK-10 renal
# [8] = test system: HOP-62 NSCLC
# [9] = test system: NCI-H460 lung
# [10] = test system: U251 CNS
# [11] = test system: HT29 colon
# [12] = test system: SK-MEL-28 melanoma
# [13] = test system: SK-OV-3 ovarian
# [14] = test system: IGROV1 ovarian
# [15] = test system: A498 renal
# [16] = test system: K-562 leukemia
# [17] = test system: EKVX NSCLC
# [18] = test system: RXF 393 renal
# [19] = test system: NCI-H23 lung
# [20] = test system: SR leukemia
# [21] = test system: SNB-19 CNS
# [22] = test system: UACC-62 melanoma
# [23] = test system: HL-60(TB) leukemia
# [24] = test system: A549 NSCLC
# [25] = test system: NCI-H522 lung
# [26] = test system: M14 melanoma
# [27] = test system: SNB-78 CNS
# [28] = test system: DMS 273 small cell lung
# [29] = test system: CCRF-CEM leukemia
# [30] = test system: UO-31 renal
# [31] = test system: BT-549 breast
# [32] = test system: LOX IMVI melanoma
# [33] = test system: T-47D breast
# [34] = test system: MCF7 breast
# [35] = test system: SK-MEL-2 melanoma
# [36] = test system: HS 578T breast
# [37] = test system: SNB-75 CNS
# [38] = test system: MDA-MB-435
# [39] = test system: PC-3 prostate
# [40] = test system: HCT-15 colon
# [41] = test system: RPMI-8226 leukemia
# [42] = test system: ACHN renal
# [43] = test system: 786-0 renal
# [44] = test system: HCT-116 colon
# [45] = test system: SF-539 CNS
# [46] = test system: MALME-3M melanoma
# [47] = test system: DU-145 prostate
# [48] = test system: OVCAR-3 ovarian
# [49] = test system: OVCAR-4 ovarian
# [50] = test system: SW-620 colon
# [51] = test system: UACC-257 melanoma
# [52] = test system: SF-295 CNS
# [53] = test system: MDA-MB-231 breast
# [54] = test system: MDA-N
# [55] = test system: COLO 205 colon
# [56] = test system: SN12C renal
# [57] = test system: CAKI-1 renal
# [58] = test system: SK-MEL-5 melanoma
# [59] = test system: NCI/ADR-RES ovarian
# [60] = test system: OVCAR-8 ovarian
# [61] = test system: HCC-2998 colon
structure (smiles),measurement,setting,value
COC(=O)CN1CCSC1=NC#N,TGI,[1],> 100 µM
same,TGI,[2],> 100 µM
same,TGI,[3],> 100 µM
same,TGI,[4],> 100 µM
same,TGI,[5],> 100 µM
same,TGI,[6],> 100 µM
same,TGI,[7],> 100 µM
same,TGI,[8],> 100 µM
same,TGI,[9],> 100 µM
same,TGI,[10],> 100 µM
same,TGI,[11],> 100 µM
same,TGI,[12],> 100 µM
same,TGI,[13],> 100 µM
same,TGI,[14],> 100 µM
same,TGI,[15],> 100 µM
same,TGI,[16],> 100 µM
same,TGI,[17],> 100 µM
same,TGI,[18],> 100 µM
same,TGI,[19],> 100 µM
same,TGI,[20],> 100 µM
same,TGI,[21],> 100 µM
same,TGI,[22],> 100 µM
same,TGI,[23],> 100 µM
same,TGI,[24],> 100 µM
same,TGI,[25],> 100 µM
same,TGI,[26],> 100 µM
same,TGI,[27],> 100 µM
same,TGI,[28],> 100 µM
same,TGI,[29],> 100 µM
same,TGI,[30],> 100 µM
Brc1ccc2c(-c3csc(-c4c[nH]c5cc(Br)ccc45)n3)c[nH]c2c1,TGI,[1],> 62.8 µM
same,TGI,[2],> 100 µM
same,TGI,[3],> 100 µM
same,TGI,[31],> 100 µM
same,TGI,[4],> 90.2 µM
same,TGI,[5],99.7 µM
same,TGI,[32],> 57.1 µM
same,TGI,[33],98.7 µM
same,TGI,[6],25.1 µM
same,TGI,[34],> 100 µM
same,TGI,[7],> 100 µM
same,TGI,[8],> 100 µM
same,TGI,[9],53.8 µM
same,TGI,[10],32.1 µM
same,TGI,[35],> 100 µM
same,TGI,[11],29.2 µM
same,TGI,[12],> 100 µM
same,TGI,[13],97.4 µM
same,TGI,[14],> 75.2 µM
same,TGI,[36],87.1 µM
same,TGI,[37],66.1 µM
same,TGI,[15],> 83.5 µM
same,TGI,[16],> 43.8 µM
same,TGI,[38],17.5 µM
same,TGI,[17],> 100 µM
same,TGI,[39],> 79.5 µM
same,TGI,[40],> 89.9 µM
same,TGI,[41],> 100 µM
same,TGI,[42],> 100 µM
same,TGI,[43],> 67.3 µM
same,TGI,[44],32.3 µM
same,TGI,[45],63.2 µM
same,TGI,[46],> 100 µM
same,TGI,[18],77.1 µM
same,TGI,[47],47.3 µM
same,TGI,[19],53.2 µM
same,TGI,[48],> 100 µM
same,TGI,[20],> 41 µM
same,TGI,[21],58.2 µM
same,TGI,[49],97.7 µM
same,TGI,[22],> 100 µM
same,TGI,[23],> 100 µM
same,TGI,[50],66.5 µM
same,TGI,[24],> 50.7 µM
same,TGI,[51],> 100 µM
same,TGI,[52],45.5 µM
same,TGI,[53],> 70.6 µM
same,TGI,[54],13.4 µM
same,TGI,[26],> 56.5 µM
same,TGI,[55],> 100 µM
same,TGI,[56],> 100 µM
same,TGI,[57],> 100 µM
same,TGI,[58],> 100 µM
same,TGI,[59],> 87 µM
same,TGI,[60],> 57.1 µM
same,TGI,[29],> 64.1 µM
same,TGI,[61],> 100 µM
same,TGI,[30],> 100 µM
